Test results as given in US9205077B2, “2-alkoxy-substituted dicyanopyridines and their use” (Bayer Intellectual Property GmbH, priority 2008, dated 2015).

Legend:
Assay type in all cases: cell-based
adenosine A2a receptor = molecular target: T1, adenosine A2a receptor (Homo sapiens, UniProt P29274); assay: Indirect determination of the adenosine agonism by way of gene expression (luciferase reporter), A2a cells; settings: CHO cells stably transfected with A2a receptor cDNA; 50% of maximum stimulation of luciferase
T1 construct: expressed in transfected cells; host or cells: CHO (Chinese Hamster Ovary) permanent line, stably transfected
Text: (§1) B-1. Indirect Determination of the Adenosine Agonism by Way of Gene Expression
(§2) Cells of the CHO (Chinese Hamster Ovary) permanent line are transfected stably with the cDNA for the adenosine receptor subtypes A1, A2a and A2b. The adenosine A1 receptors are coupled to the adenylate cyclase by way of Gi proteins, while the adenosine A2a and A2b receptors are coupled by way of Gs proteins. In correspondence with this, the formation of cAMP in the cell is inhibited or stimulated, respectively. After that, expression of the luciferase is modulated by way of a cAMP-dependent promoter. The luciferase test is optimized, with the aim of high sensitivity and reproducibility, low variance and good suitability for implementation on a robot system, by varying several test parameters, such as cell density, duration of the growth phase and the test incubation, forskolin concentration and medium composition. The following test protocol is used for pharmacologically characterizing cells and for the robot-assisted substance screening:
(§3) The stock cultures are grown, at 37° C. and under 5% CO2, in DMEM/F12 medium containing 10% FCS (fetal calf serum) and in each case split 1:10 after 2-3 days. Test cultures are seeded in 384-well plates with 2000 cells per well and grown at 37° C. for approx. 48 hours. The medium is then replaced with a physiological sodium chloride solution (130 mM sodium chloride, 5 mM potassium chloride, 2 mM calcium chloride, 20 mM HEPES, 1 mM magnesium chloride hexahydrate, 5 mM sodium bicarbonate, pH 7.4). The substances to be tested, which are dissolved in DMSO, are pipetted into the test cultures (maximum final concentration of DMSO in the test mixture: 0.5%) in a dilution series of from 5×10^−11 M to 3×10^−6 M (final concentration). 10 minutes later, forskolin is added to the A1 cells and all the cultures are subsequently incubated at 37° C. for four hours. After that, 35 μl of a solution which is composed of 50% lysis reagent (30 mM disodium hydrogenphosphate, 10% glycerol, 3% TritonX100, 25 mM TrisHCl, 2 mM dithiotreitol (DTT), pH 7.8) and 50% luciferase substrate solution (2.5 mM ATP, 0.5 mM luciferin, 0.1 mM coenzyme A, 10 mM tricine, 1.35 mM magnesium sulphate, 15 mM DTT, pH 7.8) are added to the test cultures, which are shaken for approx. 1 minute and the luciferase activity is measured using a camera system. The EC50 values are determined, i.e., the concentrations at which 50% of the luciferase response is inhibited in the case of the A1 cell, and, respectively, 50% of the maximum stimulation with the corresponding substance is achieved in the case of the A2b and A2a cells. […] Pharmacol., 357, 1-9 (1998)).

adenosine A2b receptor = molecular target: T2, adenosine A2b receptor (Homo sapiens, UniProt P29275); assay: Indirect determination of the adenosine agonism by way of gene expression (luciferase reporter), A2b cells; settings: CHO cells stably transfected with A2b receptor cDNA; 50% of maximum stimulation of luciferase
T2 construct: expressed in transfected cells; host or cells: CHO (Chinese Hamster Ovary) permanent line, stably transfected
T2 sequence (P29275 1-332): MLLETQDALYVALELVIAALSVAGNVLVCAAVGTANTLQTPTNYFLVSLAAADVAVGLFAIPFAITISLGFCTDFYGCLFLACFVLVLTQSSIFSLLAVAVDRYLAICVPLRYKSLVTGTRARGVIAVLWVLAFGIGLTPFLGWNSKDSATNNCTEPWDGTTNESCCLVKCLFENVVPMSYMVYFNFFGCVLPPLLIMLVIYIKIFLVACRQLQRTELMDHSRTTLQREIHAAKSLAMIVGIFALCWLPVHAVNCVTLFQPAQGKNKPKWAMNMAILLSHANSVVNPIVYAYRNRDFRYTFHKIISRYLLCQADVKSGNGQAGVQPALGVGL
Text: as §1, §2, §3

adenosine A1 receptor = molecular target: T3, adenosine A1 receptor (Homo sapiens, UniProt P30542); assay: Indirect determination of the adenosine agonism by way of gene expression (luciferase reporter), A1 cells; settings: CHO cells stably transfected with A1 receptor cDNA; 1 μM forskolin; 50% inhibition of luciferase response
T3 construct: expressed in transfected cells; host or cells: CHO (Chinese Hamster Ovary) permanent line, stably transfected
T3 sequence (P30542 1-326): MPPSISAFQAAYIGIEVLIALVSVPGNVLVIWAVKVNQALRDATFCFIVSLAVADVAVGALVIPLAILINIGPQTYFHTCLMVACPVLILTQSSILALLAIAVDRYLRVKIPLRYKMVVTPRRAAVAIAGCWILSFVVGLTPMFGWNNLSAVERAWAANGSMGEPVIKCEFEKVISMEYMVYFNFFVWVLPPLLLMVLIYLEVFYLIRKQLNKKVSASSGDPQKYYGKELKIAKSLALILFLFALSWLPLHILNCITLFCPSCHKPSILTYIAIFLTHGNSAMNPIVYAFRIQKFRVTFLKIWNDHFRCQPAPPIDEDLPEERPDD
Text: as §1, §2, §3

T1 sequence (P29274 whole entry): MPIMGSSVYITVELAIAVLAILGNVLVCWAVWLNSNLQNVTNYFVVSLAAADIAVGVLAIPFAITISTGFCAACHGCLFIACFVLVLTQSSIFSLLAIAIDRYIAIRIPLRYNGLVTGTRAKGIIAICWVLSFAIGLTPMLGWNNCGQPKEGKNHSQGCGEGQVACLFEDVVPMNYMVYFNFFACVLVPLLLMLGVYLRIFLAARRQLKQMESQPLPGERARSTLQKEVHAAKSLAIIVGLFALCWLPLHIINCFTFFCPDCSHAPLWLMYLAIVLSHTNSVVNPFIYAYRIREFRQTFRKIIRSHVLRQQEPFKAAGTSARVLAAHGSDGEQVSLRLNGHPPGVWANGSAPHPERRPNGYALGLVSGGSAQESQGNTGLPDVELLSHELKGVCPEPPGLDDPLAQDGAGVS

SMILES	EC50 (adenosine A2a receptor) [nM]	EC50 (adenosine A2b receptor) [nM]	EC50 (adenosine A1 receptor) [nM]
N#Cc1c(OCCCO)nc(SCc2csc(-c3ccc(Cl)cc3)n2)c(C#N)c1-c1cncs1 [Example 6, 2-({[2-(4-Chlorophenyl)-1,3-thiazol-4-yl]methyl}sulphanyl)-6-(3-hydroxypropoxy)-4-(1,3-thiazol-5-yl)pyridine-3,5-dicarbonitrile]	> 3000	> 3000	5.7
N#Cc1c(OCCCO)nc(SCc2csc(-c3ccc(Cl)cc3)n2)c(C#N)c1-c1ccc(OCCO)cc1 [Example 3, 2-({[2-(4-Chlorophenyl)-1,3-thiazol-4-yl]methyl}sulphanyl)-4-[4-(2-hydroxyethoxy)phenyl]-6-(3-hydroxypropoxy)pyridine-3,5-dicarbonitrile]	689	263	0.6
CCCOc1nc(SCc2csc(-c3ccc(Cl)cc3)n2)c(C#N)c(-c2ccccc2)c1C#N [Example 1, 2-({[2-(4-Chlorophenyl)-1,3-thiazol-4-yl]methyl}sulphanyl)-4-phenyl-6-propoxypyridine-3,5-dicarbonitrile]	> 3000	> 3000	1.3
COc1nc(SCc2cccnc2)c(C#N)c(-c2ccc(OCCO)cc2)c1C#N [Example 12, 4-[4-(2-Hydroxyethoxy)phenyl]-2-methoxy-6-[(pyridin-3-ylmethyl)sulphanyl]pyridine-3,5-dicarbonitrile]	547	> 3000	1.2
CNC(=O)c1cc(CSc2nc(OCCO)c(C#N)c(-c3ccccc3)c2C#N)ccn1 [Example 18, 4-({[3,5-Dicyano-6-(2-hydroxyethoxy)-4-phenylpyridin-2-yl]thio}methyl)-N-methylpyridine-2-carboxamide]	1740	> 3000	0.3
COc1nc(SCc2csc(-c3ccc(Cl)cc3)n2)c(C#N)c(-c2ccc(OC[C@@H](O)CO)cc2)c1C#N [Example 22, 2-({[2-(4-Chlorophenyl)-1,3-thiazol-4-yl]methyl}sulphanyl)-4-(4-{[(2S)-2,3-dihydroxypropyl]-oxy}phenyl)-6-methoxypyridine-3,5-dicarbonitrile]	1260	142	2.1
COc1nc(SCc2c[nH]cn2)c(C#N)c(-c2ccc(OCCO)cc2)c1C#N [Example 21, Formic acid 4-[4-(2-hydroxyethoxy)phenyl]-2-[(1H-imidazol-4-ylmethyl)sulphanyl]-6-methoxypyridine-3,5-dicarbonitrile (1:1)]	> 3000	28.6	73.2
CCOc1nc(SCc2coc(-c3ccc(Cl)cc3)n2)c(C#N)c(-c2ccc(OCCO)cc2)c1C#N [Example 15, 2-({[2-(4-Chlorophenyl)-1,3-oxazol-4-yl]methyl}sulphanyl)-6-ethoxy-4-[4-(2-hydroxyethoxy)-phenyl]pyridine-3,5-dicarbonitrile]	> 3000	> 3000	4.8
CCOc1nc(SCc2csc(-c3ccc(Cl)cc3)n2)c(C#N)c(-c2ccc(OCCO)cc2)c1C#N [Example 16, 2-({[2-(4-Chlorophenyl)-1,3-thiazol-4-yl]methyl}sulphanyl)-6-ethoxy-4-[4-(2-hydroxyethoxy)-phenyl]pyridine-3,5-dicarbonitrile]	527	> 3000	0.8
N#Cc1c(OCCO)nc(SCc2csc(-c3ccc(Cl)cc3)n2)c(C#N)c1-c1ccc(OCCO)cc1 [Example 19]	685	177	0.5
COc1nc(SCc2csc(-c3ccc(Cl)cc3)n2)c(C#N)c(-c2ccc(OCCO)cc2)c1C#N [Example 8, 2-({[2-(4-Chlorophenyl)-1,3-thiazol-4-yl]methyl}sulphanyl)-4-[4-(2-hydroxyethoxy)phenyl]-6-methoxypyridine-3,5-dicarbonitrile]	1220	105	0.3
COc1cccc(CSc2nc(OC)c(C#N)c(-c3ccc(OCCO)cc3)c2C#N)c1 [Example 11, 4-[4-(2-Hydroxyethoxy)phenyl]-2-methoxy-6-[(3-methoxybenzyl)sulphanyl]pyridine-3,5-dicarbonitrile]	1110	> 3000	0.8
N#Cc1c(OCCCO)nc(SCc2csc(-c3ccc(Cl)cc3)n2)c(C#N)c1-c1ccccc1 [Example 2, 2-({[2-(4-Chlorophenyl)-1,3-thiazol-4-yl]methyl}sulphanyl)-6-(3-hydroxypropoxy)-4-phenylpyridine-3,5-dicarbonitrile]	> 3000	534	0.7
